Measured values: patent publication US6544989B2, “Benzazoles: benzoxazole, benzthiazole and benzimidazole derivatives” (Syngenta Limited, priority 1998, dated 2003)
Marks after values point to notes of the source that are not given here.

Experiments:
Septoria nodorum [1] = assay: Fungicidal test, Septoria nodorum (LEPTNO) on wheat, PRCO; assay type: in vivo; details: METHOD 2 (unbanded)
Botrytis cinerea = assay: Fungicidal test, Botrytis cinerea (BOTRCI) on tomatoes, PRCO; assay type: in vivo; details: METHOD 2 (unbanded)
Meloidogyne incognita = assay: Nematode test, J2 infective juveniles of Meloidogyne incognita, mortality; details: 12.5 ppm; J2 infective juveniles suspended in solution; mortality after three days
Plasmopara viticola [2] = assay: Synergy test of two-compound mixtures, Plasmopara viticola (PLASVI) on vines, observed and expected PRCO; assay type: in vivo; details: Disease on untreated: 95%
Puccinia recondita = assay: Fungicidal test, Puccinia recondita (PUCCRT) on wheat, PRCO; assay type: in vivo; details: METHOD 2 (unbanded)
Rhizoctonia solani [3] = assay: Fungicidal test, Rhizoctonia solani (RHIZSO) on rice, PRCO; assay type: in vivo; details: METHOD 2 (unbanded)
Venturia inaequalis = assay: Fungicidal test, Venturia inaequalis (VENTIN) on apples, PRCO; assay type: in vivo; details: METHOD 2 (unbanded)
Septoria nodorum [4] = assay: Synergy test of two-compound mixtures, Septoria nodorum (LEPTNO) on wheat, observed and expected PRCO; assay type: in vivo
Uncinula necator = assay: Fungicidal test, Uncinula necator (UNCINE) on vines, PRCO; assay type: in vivo; details: METHOD 2 (unbanded)
Musca domestica = details: 500 ppm by weight; knockdown assessed 15 minutes after treatment
[5] = tested on: Erysiphe graminis f.sp. tritici; assay: Fungicidal test, Erysiphe graminis f.sp. tritici (ERYSGT) on wheat, PRCO; assay type: in vivo; details: 6 hr Prot/Foir; METHOD 1 (values marked *)
Rhizoctonia solani [6] = assay: Synergy test of two-compound mixtures, Rhizoctonia solani (RHIZSO) on turf, observed and expected PRCO; assay type: in vivo; details: assessed 5 days after treatment
[7] = tested on: Phytophthora infestans lycopersici; assay type: in vivo; details: METHOD 1 (values marked *)
Plasmopara viticola [8] = assay: Fungicidal test, Plasmopara viticola (PLASVI) on vines, PRCO; assay type: in vivo; details: METHOD 2 (unbanded)
Pyricularia oryzae = assay type: in vivo; details: METHOD 2 (unbanded)

Q: Which results are given for `Cc1nsc(NC(=O)Cc2ccc3oc(CC(C)(C)C)nc3c2)c1Cl` [Compound 15(A3)]?
A: LEPTNO 1 d Prot/Foir PRCO (Septoria nodorum [1]): 71; BOTRCI 1 d Prot/Foir PRCO (Botrytis cinerea): 73; MELGIN = Meloidogyne incognita, grading of mortality (score) (Meloidogyne incognita): 0 (0 indicates less than 40% mortality); % disease control Observed (Plasmopara viticola [2]; Compound 15(A3) 0.2 mg/l alone): 45%; PUCCRT 1 d Prot/Foir PRCO (Puccinia recondita): 100; RHIZSO 1 d Prot/Foir PRCO (Rhizoctonia solani [3]): 5; VENTIN 1 d Prot/Foir PRCO (Venturia inaequalis): 100; % disease control Observed (Septoria nodorum [4]; Test 1 (Disease on untreated: 52%), Compound 15(A3) 50 mg/l alone): 16%; % disease control Observed (Septoria nodorum [4]; Test 1 (Disease on untreated: 52%), Compound 15(A3) 100 mg/l alone): 27%; % disease control Observed (Septoria nodorum [4]; Test 2 (Disease on untreated: 64%), Compound 15(A3) 50 mg/l alone): 21%; % disease control Observed (Septoria nodorum [4]; Test 2 (Disease on untreated: 64%), Compound 15(A3) 100 mg/l alone): 21%; UNCINE 1 d Prot/Foir PRCO (Uncinula necator): 100; MUSCDO AC = Musca domestica (knockdown), score (Musca domestica): 9 (9 indicates 80-100% mortality); ERYSGT 6 hr Prot/Foir PRCO [5]: 100*; % disease control Observed (Rhizoctonia solani [6]; Test 1, Disease on untreated 100%, Compound 15(A3) 300 mg/l alone): 2.5%; % disease control Observed (Rhizoctonia solani [6]; Test 2, Disease on untreated 100%, Compound 15(A3) 300 mg/l alone): 6.1%; PHYTIN 1 d Prot/Foir PRCO [7]: 100*; PLASVI 1 d Prot/Foir PRCO (Plasmopara viticola [8]): 100; PYRIOR 1 d Prot/Foir PRCO (Pyricularia oryzae): 100

Q: What does the source list for `CO/C=C(/C(=O)OC)c1ccccc1Oc1cc(Oc2ccccc2C#N)ncn1` [azoxystrobin, reference compound]?
A: % disease control Observed (Plasmopara viticola [2]; azoxystrobin 0.2 mg/l alone): 61%; % disease control Observed (Septoria nodorum [4]; Test 1 (Disease on untreated: 52%), azoxystrobin 0.1 mg/l alone): 41%; % disease control Observed (Septoria nodorum [4]; Test 1 (Disease on untreated: 52%), azoxystrobin 0.25 mg/l alone): 37%; % disease control Observed (Septoria nodorum [4]; Test 2 (Disease on untreated: 64%), azoxystrobin 0.1 mg/l alone): 48%; % disease control Observed (Septoria nodorum [4]; Test 2 (Disease on untreated: 64%), azoxystrobin 0.25 mg/l alone): 71%; % disease control Observed (Rhizoctonia solani [6]; Test 1, azoxystrobin 0.1 mg/l alone): 38.25%; % disease control Observed (Rhizoctonia solani [6]; Test 1, azoxystrobin 0.3 mg/l alone): 71.25%; % disease control Observed (Rhizoctonia solani [6]; Test 2, azoxystrobin 0.1 mg/l alone): 19.7%

Q: With `O=[N+]([O-])c1cc(C(F)(F)F)c(Cl)c([N+](=O)[O-])c1Nc1ncc(C(F)(F)F)cc1Cl` [fluazinam] as the compound, how does the “% disease control Observed” value (Plasmopara viticola [2]; fluazinam 1 mg/l alone) read?
A: 4%

Q: And the “% disease control Observed” value (Rhizoctonia solani [6]; Test 1, fluazinam 3 mg/l alone)?
A: 15%

Q: What about the “% disease control Observed” value (Rhizoctonia solani [6]; Test 1, fluazinam 10 mg/l alone) of the same compound?
A: 48.75%

Q: What about the “% disease control Observed” value (Rhizoctonia solani [6]; Test 2, fluazinam 10 mg/l alone) of the same compound?
A: 18.4%
